In paper PMC11647725, “Discovery of 4-(5-Membered)Heteroarylether-6-methylpicolinamide Negative Allosteric Modulators of Metabotropic Glutamate Receptor Subtype 5” (ACS Medicinal Chemistry Letters, 2024):

Assays:
CYP 1A2 = molecular target: T1, CYP 1A2 (Homo sapiens, UniProt P05177); experiment: P450 inhibition in pooled human liver microsomes; assay type: in vitro ADME; conditions: pooled HLM, NADPH, CYP-specific probe substrates; listed as VU6043653
T1 construct: from tissue; host or cells: pooled human liver microsomes (per the earlier reading)

CYP 2C9 = molecular target: T2, CYP 2C9 (Homo sapiens, UniProt P11712); experiment: P450 inhibition in pooled human liver microsomes; assay type: in vitro ADME; conditions: pooled HLM, NADPH, CYP-specific probe substrates; listed as VU6043653
T2 construct: from tissue; host or cells: pooled human liver microsomes (per the earlier reading)

[1] = Binding in plasma from human (equilibrium dialysis); assay type: in vitro ADME; conditions: human, plasma, read-out: Human fu,plasma
Method: Binding in plasma from rat and human.
Determination of compounds’ fraction unbound (f u) in plasma from rat and human was conducted in vitro via equilibrium dialysis using HTDialysis membrane plates. Dialysis membranes (four paired strips per HTD assay) were hydrated as described by the manufacturer and inserted into the HTD plate, which was assembled and prepared for sample addition by the dispensing of blank buffer (DPBS, 100 µL/well) into the ‘top half’ of each membrane-split well. Each compound was diluted into plasma from each species (5 µM final concentration), which was aliquoted in triplicate to the ‘bottom half’ of the prepared HTD plate wells. The HTD plate was sealed and incubated for 6 hours at 37 °C. Following incubation, each well (both top and bottom halves) were transferred (20 µL) to the corresponding wells of a 96-shallow-well (V-bottom) plate. The daughter plates were then matrix-matched (buffer side wells received equal volume of plasma, and plasma side wells received equal volume of buffer), and extraction solution (120 µL; acetonitrile containing 50 nM carbamazepine as IS) was added to all wells of both daughter plates to precipitate protein and extract test article. The plates were then sealed and centrifuged (3500 rcf) for 10 minutes at ambient temperature. Supernatant (60 µL) from each well of the daughter plates was then transferred to the corresponding wells of new daughter plates (96-shallow-well, V bottom) containing water (Milli-Q, 60 µL/well), and the plates were sealed in preparation for LC-MS/MS analysis (see below). fu was calculated as (analyte to IS MS peak area ratio from Trans-buffer side) / (analyte to IS MS peak area ratio from Cis-plasma side). Mean values for each species were calculated from 3 replicates. […]
Mean values for each species were calculated from 3 replicates. […]
After 5 minutes (pre-incubation), reactions were initiated by addition of nicotinamide adenine dinucleotide phosphate (NADPH, 1 mM final concentration). At selected time intervals (0, 3, 7, 15, 25, and 45 minutes) post-addition of NADPH, aliquots (50 µL) were taken and placed into a 96-shallow-well plate containing ice cold acetonitrile (150 µL) with carbamazepine (IS, 50 nM). The plates were then centrifuged (3000 rcf at 4 °C) for 10 minutes. The supernatants were transferred to a new 96-shallow-well daughter plate and diluted (1:1 v/v) with water (Milli-Q filtered). The plates were then sealed in preparation for LC-MS/MS analysis (see below).

Interleukin IL-1 R1 = Interleukin IL-1 R1 (Homo sapiens, UniProt P14778); experiment: Lead Profiling Screen, Eurofins Panlabs; assay type: binding; conditions: Interleukin IL-1 R1, hum, read-out: % inh at 10 μM
[2] = molecular target: Nicotinic Acetylcholine α1, Bungarotoxin (Homo sapiens, UniProt P02708+P07510+Q07001); experiment: biochemical; assay type: binding; conditions: read-out: % inh at 10 μM
[3] = molecular target: Nicotinic Acetylcholine α3β4 (Homo sapiens, UniProt P30926+P32297); experiment: Lead Profiling Screen, Eurofins Panlabs; assay type: binding; conditions: Nicotinic Acetylcholine α3β4, hum, read-out: % inh at 10 μM
Opiate δ1 (OP1, DOP) = Opiate δ1 (OP1, DOP) (Homo sapiens, UniProt P41143); experiment: Lead Profiling Screen, Eurofins Panlabs; assay type: binding; conditions: hum, read-out: % inh at 10 μM
Opiate κ (OP2, KOP) = Opiate κ (OP2, KOP) (Homo sapiens, UniProt P41145); experiment: Lead Profiling Screen, Eurofins Panlabs; assay type: binding; conditions: hum, read-out: % inh at 10 μM
Phorbol Ester = experiment: Lead Profiling Screen, Eurofins Panlabs; assay type: binding; conditions: mouse
Purinergic P2X = experiment: Lead Profiling Screen, Eurofins Panlabs; assay type: binding; conditions: rat
[4] = test system: Purinergic P2Y, Non-Selective; experiment: Lead Profiling Screen, Eurofins Panlabs; assay type: binding; conditions: rat
Sigma σ1 = Sigma σ1 (Homo sapiens, UniProt Q99720); experiment: Lead Profiling Screen, Eurofins Panlabs; assay type: binding; conditions: Sigma σ1, hum, read-out: % inh at 10 μM
Thyroid Hormone = experiment: Lead Profiling Screen, Eurofins Panlabs; assay type: binding; conditions: rat
[5] = molecular target: Transporter, Norepinephrine (NET) (Homo sapiens, UniProt P23975); experiment: Lead Profiling Screen, Eurofins Panlabs; assay type: binding; conditions: hum, read-out: % inh at 10 μM
Sequence of Transporter, Norepinephrine (NET) (P23975 whole entry): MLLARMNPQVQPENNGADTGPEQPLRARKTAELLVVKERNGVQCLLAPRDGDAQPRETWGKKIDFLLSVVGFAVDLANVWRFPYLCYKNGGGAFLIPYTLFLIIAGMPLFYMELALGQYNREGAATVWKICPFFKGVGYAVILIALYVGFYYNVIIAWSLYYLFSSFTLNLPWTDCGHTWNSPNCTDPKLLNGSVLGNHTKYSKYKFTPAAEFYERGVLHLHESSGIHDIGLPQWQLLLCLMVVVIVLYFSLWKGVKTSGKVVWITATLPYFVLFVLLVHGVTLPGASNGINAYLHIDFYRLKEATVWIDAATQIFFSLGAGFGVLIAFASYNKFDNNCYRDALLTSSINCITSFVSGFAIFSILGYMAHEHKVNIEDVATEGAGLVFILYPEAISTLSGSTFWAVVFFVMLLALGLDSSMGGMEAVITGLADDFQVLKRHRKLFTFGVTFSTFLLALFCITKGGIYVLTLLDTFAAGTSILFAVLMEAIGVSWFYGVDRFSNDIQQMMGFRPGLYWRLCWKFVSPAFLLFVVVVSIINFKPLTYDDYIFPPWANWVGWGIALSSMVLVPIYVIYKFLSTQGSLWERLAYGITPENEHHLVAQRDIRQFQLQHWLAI

T1 sequence (P05177 whole entry): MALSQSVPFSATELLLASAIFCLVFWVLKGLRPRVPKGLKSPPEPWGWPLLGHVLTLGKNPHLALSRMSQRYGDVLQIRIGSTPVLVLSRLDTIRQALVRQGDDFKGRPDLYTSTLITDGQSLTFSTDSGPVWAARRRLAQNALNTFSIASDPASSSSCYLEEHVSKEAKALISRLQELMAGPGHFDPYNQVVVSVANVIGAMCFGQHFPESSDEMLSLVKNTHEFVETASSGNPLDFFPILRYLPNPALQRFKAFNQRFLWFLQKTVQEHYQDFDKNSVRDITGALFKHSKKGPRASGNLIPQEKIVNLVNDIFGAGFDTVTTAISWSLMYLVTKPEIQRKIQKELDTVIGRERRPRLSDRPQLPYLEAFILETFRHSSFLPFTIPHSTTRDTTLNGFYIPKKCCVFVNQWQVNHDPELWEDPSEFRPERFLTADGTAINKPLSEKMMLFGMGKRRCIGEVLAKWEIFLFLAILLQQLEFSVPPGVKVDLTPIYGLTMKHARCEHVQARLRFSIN
T2 sequence (P11712 whole entry): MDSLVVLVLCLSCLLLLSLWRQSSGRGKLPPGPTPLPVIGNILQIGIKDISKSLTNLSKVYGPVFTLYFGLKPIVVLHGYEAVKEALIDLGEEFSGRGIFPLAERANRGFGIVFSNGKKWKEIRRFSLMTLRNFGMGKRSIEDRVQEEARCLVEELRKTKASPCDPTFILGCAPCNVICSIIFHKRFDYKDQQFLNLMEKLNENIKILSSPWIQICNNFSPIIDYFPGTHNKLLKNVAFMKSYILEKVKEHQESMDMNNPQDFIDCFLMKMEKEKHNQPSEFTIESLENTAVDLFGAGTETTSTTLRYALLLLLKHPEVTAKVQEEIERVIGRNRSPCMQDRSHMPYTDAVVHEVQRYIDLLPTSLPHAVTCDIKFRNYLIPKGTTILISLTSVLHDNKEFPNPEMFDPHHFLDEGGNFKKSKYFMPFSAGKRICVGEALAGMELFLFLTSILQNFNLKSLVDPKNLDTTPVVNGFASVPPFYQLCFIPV
Sequence of Interleukin IL-1 R1 (P14778 18-569): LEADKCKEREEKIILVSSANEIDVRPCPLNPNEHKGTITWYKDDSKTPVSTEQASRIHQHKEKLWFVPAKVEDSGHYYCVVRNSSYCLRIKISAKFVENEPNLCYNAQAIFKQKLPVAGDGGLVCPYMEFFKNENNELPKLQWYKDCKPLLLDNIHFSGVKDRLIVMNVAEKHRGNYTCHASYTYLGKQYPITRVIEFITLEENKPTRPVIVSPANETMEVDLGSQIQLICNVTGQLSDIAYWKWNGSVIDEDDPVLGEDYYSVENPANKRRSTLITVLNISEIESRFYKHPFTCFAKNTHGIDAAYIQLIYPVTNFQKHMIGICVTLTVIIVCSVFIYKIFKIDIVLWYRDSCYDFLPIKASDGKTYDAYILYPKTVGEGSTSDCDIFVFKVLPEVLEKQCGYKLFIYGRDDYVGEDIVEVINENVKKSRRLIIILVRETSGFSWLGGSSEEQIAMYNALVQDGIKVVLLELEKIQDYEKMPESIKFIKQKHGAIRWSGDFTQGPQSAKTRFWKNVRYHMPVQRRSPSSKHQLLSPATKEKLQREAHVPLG
Sequence of Sigma σ1 (Q99720 whole entry): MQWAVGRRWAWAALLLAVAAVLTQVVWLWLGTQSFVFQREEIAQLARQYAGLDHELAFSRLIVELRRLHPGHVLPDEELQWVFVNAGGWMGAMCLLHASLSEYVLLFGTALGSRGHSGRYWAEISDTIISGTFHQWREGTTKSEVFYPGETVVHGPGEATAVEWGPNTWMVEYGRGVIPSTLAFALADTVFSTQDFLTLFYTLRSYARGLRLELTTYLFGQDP
Sequence of Nicotinic Acetylcholine α1, Bungarotoxin (P07510 23-517): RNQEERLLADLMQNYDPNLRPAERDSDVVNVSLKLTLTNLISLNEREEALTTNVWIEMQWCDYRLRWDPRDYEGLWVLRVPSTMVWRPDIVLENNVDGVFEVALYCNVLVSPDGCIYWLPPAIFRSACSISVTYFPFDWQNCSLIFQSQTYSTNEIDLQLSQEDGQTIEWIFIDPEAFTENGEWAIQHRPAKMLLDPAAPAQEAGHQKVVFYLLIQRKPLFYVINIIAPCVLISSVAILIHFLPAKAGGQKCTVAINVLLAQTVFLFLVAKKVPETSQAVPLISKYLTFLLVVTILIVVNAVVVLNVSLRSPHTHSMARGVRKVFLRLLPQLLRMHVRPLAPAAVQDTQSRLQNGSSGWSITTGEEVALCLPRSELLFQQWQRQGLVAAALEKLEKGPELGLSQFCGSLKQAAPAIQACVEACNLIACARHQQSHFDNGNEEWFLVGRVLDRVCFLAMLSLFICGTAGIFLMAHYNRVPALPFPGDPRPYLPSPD
Sequence of Nicotinic Acetylcholine α1, Bungarotoxin (P11230 24-501, further chain): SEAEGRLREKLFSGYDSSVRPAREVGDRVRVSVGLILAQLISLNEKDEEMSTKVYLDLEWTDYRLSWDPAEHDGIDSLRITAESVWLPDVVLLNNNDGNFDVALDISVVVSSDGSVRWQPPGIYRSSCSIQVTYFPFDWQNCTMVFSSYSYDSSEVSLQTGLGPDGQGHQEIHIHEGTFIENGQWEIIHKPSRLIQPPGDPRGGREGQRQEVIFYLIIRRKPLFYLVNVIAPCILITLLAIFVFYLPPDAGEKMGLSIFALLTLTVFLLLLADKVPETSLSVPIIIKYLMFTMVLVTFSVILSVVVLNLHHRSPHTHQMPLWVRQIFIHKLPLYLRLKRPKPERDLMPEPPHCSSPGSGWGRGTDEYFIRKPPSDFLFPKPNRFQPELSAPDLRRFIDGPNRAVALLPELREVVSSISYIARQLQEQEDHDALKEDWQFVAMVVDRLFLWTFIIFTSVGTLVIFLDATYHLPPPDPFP
Sequence of Nicotinic Acetylcholine α1, Bungarotoxin (Q07001 22-517): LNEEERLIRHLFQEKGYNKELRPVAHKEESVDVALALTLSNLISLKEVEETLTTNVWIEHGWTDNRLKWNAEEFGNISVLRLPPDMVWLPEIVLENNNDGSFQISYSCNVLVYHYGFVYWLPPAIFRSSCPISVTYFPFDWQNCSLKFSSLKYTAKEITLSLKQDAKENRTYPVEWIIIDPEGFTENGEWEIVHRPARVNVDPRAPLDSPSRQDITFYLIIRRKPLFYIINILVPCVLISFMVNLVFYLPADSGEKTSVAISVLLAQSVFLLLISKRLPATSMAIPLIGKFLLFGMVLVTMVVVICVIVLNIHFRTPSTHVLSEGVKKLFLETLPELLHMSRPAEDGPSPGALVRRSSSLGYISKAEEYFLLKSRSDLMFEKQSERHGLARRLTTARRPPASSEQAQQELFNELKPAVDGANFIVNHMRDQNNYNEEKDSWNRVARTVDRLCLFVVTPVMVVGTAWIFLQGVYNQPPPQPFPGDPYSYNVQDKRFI
Sequence of Nicotinic Acetylcholine α1, Bungarotoxin (P02708 21-457): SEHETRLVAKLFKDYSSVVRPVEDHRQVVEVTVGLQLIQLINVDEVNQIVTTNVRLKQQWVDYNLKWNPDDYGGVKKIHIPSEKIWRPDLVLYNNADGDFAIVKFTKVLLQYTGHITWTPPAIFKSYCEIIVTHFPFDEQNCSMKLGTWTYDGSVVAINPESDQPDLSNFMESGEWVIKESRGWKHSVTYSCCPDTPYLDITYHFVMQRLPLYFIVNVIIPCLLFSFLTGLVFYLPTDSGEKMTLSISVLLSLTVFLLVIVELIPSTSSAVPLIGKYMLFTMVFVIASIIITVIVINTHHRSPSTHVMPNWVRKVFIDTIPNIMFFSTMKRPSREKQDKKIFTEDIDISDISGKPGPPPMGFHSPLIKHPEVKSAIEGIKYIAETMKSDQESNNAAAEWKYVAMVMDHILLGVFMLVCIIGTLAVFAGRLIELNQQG
Sequence of Opiate κ (OP2, KOP) (P41145 whole entry): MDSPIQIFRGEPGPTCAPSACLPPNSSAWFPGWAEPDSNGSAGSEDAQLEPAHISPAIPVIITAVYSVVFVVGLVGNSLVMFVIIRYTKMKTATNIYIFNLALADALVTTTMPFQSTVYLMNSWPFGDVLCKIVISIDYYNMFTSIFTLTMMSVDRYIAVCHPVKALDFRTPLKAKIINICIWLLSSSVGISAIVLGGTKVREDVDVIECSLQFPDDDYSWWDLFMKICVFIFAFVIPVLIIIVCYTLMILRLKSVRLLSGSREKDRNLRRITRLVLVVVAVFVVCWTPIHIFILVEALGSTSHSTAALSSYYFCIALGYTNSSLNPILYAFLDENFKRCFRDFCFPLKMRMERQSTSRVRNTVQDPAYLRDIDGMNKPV

With Cc1cc(Oc2cnn(C)c2)cc(C(=O)Nc2ccc(F)cn2)n1 [22iA] the IC50 (CYP 1A2) was no less than 30 µM, the IC50 (CYP 2C9) was no less than 30 µM and the fraction unbound at 6 h, 5 µM [1] was 0.059. The inhibition at 10 µM (Interleukin IL-1 R1) was -7%, the inhibition at 10 µM [2] was -12% and the inhibition at 10 µM [3] was 6%. For the same molecule, the inhibition at 10 µM (Opiate δ1 (OP1, DOP)) was 3%, the inhibition at 10 µM (Opiate κ (OP2, KOP)) was 2% and the “% inh at 10 μM” value (Phorbol Ester) was -1%. For the same molecule, the “% inh at 10 μM” value (Purinergic P2X) was 15%, the “% inh at 10 μM” value [4] was 9% and the inhibition at 10 µM (Sigma σ1) was 0%. The “% inh at 10 μM” value (Thyroid Hormone) was -2% and the inhibition at 10 µM [5] was 63%.
